Like-named read-outs stand apart in the source and are kept apart here.
What was measured:
[1] = tested on: mice; experiment: Dispair test (Porsolt) in mice; type: in vivo, Swiss strain male mice (CD-1 Charles River); details: for immobility duration: 1 hour before test; for minimal effective dose: Dispair test, i.p., read-out: active dosage
Procedure: This behaviouristic test conceived by Porsolt (1977 --Nature, 266 730-732 is generally utilized to evaluate the antidepressant activity.
Swiss strain male mice of average weight of 30 g (CD -1 Charles River) casually assigned to the different treatment groups are used.
The method consists in placing the animal in a plexiglas cylinder 25 cm high and with a diameter of 9 cm filled with water at 24° C. up to a level of 6 cm.
The test lasts 6 minutes and the time in which the animal lets itself float without reacting is measured starting from the 2nd minute (immobility duration).
The animals ape treated by intraperitoneal route (injection volume 10 ml/kg) 1 hour before the test.
The evaluation is carried out in blind. The statistical analysis of the results is carried out where it is possible by means of the T-Student test, otherwise the non parametric test of Mann Whitney is used.

[2] = Acute toxicity (LD50) in mice; details: mouse, in vivo, read-out: LD50 (DL50)
[3] = Solubility in solvents; type: physicochemical
[4] = tested on: rats; experiment: Social Interaction test in rats (anxiolythic activity); type: in vivo, Sprague-Dawley male rats; details: for Social Interaction increase (%): 1 hour before test, vs controls
From the text: The behaviouristic Social Interaction test found by FILE was used. (Animal models of psychiatric disorders, vol. 1 Karger, Basel, pp 151-166).
It consists in an experimental procedure permitting to evaluate the influence of the pharmacological treatment on the spontaneous behaviour of the rat, by means of the social component which in this animal is particularly accentuated.
Sprague-Dawley male rats weighing about 250 g are used. After a normal stabling period (2 weeks), the animal are isolated in smaller cages (267×207×140 mm surface 410 cm^2) for a period of about 5 days.
Then the rats are gathered into couples, avoiding that weight difference between the two animals overcomes 10 g and that the couple components had not previously stabled together.
The couple thus gathered are assigned to the respective treatment group.
Diazepam was utilized as the positive control drug: 1,25 mg/kg are intraperitoneally administered 30' before carrying out the test.
The compounds to be tested are administered 1 hour before carrying out the test.
The box utilized [55×55×30 cm (height)] for the animal observation is white, completely washable and provided with a floor split up into 25 squares.
A 100 Watt lamp is placed upon the box at 50 cm from the floor. The test is realized in a remote room whose only light source is represented by the lamp lighting the box.
The evaluation is carried out in blind. The animals are observed indirectly, by means of a mirror suitably placed.
Evaluated parameters: time passed in Social Interaction (sniffing pursuit, grooming, boxing etc.).
The box is systematically cleaned up after every test.
The results are expressed as a function of a percentage increase of Social Interaction of the treated animals in comparison with the controls.

[5] = Mus musculus, ip, 1 h, 10 mg/kg i.p., vs control (dosage 0), read-out: immobility duration < % (decrease)
[6] = Mus musculus, ip, 1 h, 0.25 mg/kg i.p., vs control (dosage 0), read-out: immobility duration < % (decrease)
[7] = Mus musculus, ip, 1 h, 0.5 mg/kg i.p., vs control (dosage 0), read-out: immobility duration < % (decrease)
[8] = Mus musculus, ip, 1 h, 1 mg/kg i.p., vs control (dosage 0), read-out: immobility duration < % (decrease)
[9] = Mus musculus, ip, 1 h, 0.1 mg/kg i.p., vs control (dosage 0), read-out: immobility duration < % (decrease)

Nc1nnc(SCc2ccccc2)s1 [B16, 2-amino-5-benzylmercapto-1,3,4-thiadiazole]
immobility duration ([1]; 1 mg/kg i.p.): 197 ± 22 | immobility duration ([1]; 5 mg/kg i.p.): 171 ± 23 | immobility duration ([1]; 10 mg/kg i.p.): 132 ± 45 | immobility duration ([1]; 15 mg/kg i.p.): 186 ± 14 | immobility duration ([1]; 20 mg/kg i.p.): 199 ± 16 | inhibition in vivo at 5 mg/kg ([1]; Mus musculus, ip, 1 h, 5 mg/kg i.p., vs control (dosage 0), read-out: immobility duration < % (decrease)): 16% | inhibition in vivo at 10 mg/kg [1, 5]: 35% | inhibition in vivo at 15 mg/kg ([1]; Mus musculus, ip, 1 h, 15 mg/kg i.p., vs control (dosage 0), read-out: immobility duration < % (decrease)): 8% | minimal effective dose ([1]; Mus musculus, ip, 1 h): 5 to 10 mg/kg | LD50 ([2]; ip): > 600 mg/kg | LD50 ([2]; po, per os): > 600 mg/kg | solubility in alcohols, chloroform, ethyl acetate, acetone [3]: soluble | solubility in ether and water [3]: insoluble | Social Interaction increase (%) ([4]; 0.5 mg/kg): 40% | Social Interaction increase (%) ([4]; 1 mg/kg): 67% | Social Interaction increase (%) ([4]; 2.5 mg/kg): 94% | Social Interaction increase (%) ([4]; 5 mg/kg): 51% | shape of dose-response curve, Social Interaction ([4]; 0.5-5 mg/kg): Gaussian shape

CC(=O)Nc1nnc(SCc2ccccc2)s1 [B17, 2-acetylamino-5-benzylmercapto-1,3,4-thiadiazole]
immobility duration ([1]; 0.03 mg/kg i.p.): 198 ± 16 | immobility duration ([1]; 0.06 mg/kg i.p.): 159 ± 38 | immobility duration ([1]; 0.125 mg/kg i.p.): 167 ± 22 | immobility duration ([1]; 0.25 mg/kg i.p.): 183 ± 20 | immobility duration ([1]; 0.5 mg/kg i.p.): 182 ± 25 | immobility duration ([1]; 1 mg/kg i.p.): 187 ± 36 | inhibition in vivo at 0.06 mg/kg ([1]; Mus musculus, ip, 1 h, 0.06 mg/kg i.p., vs control (dosage 0), read-out: immobility duration < % (decrease)): 22% | inhibition in vivo at 0.125 mg/kg ([1]; Mus musculus, ip, 1 h, 0.125 mg/kg i.p., vs control (dosage 0), read-out: immobility duration < % (decrease)): 17% | inhibition in vivo at 0.25 mg/kg [1, 6]: 10% | inhibition in vivo at 0.5 mg/kg [1, 7]: 10% | minimal effective dose ([1]; Mus musculus, ip, 1 h): ~0.5 mg/kg | LD50 ([2]; ip): > 1000 mg/kg | LD50 ([2]; po, per os): > 1000 mg/kg

CSc1nnc(N)s1 [B21]
immobility duration ([1]; 20 mg/kg i.p.): 187 ± 13 | immobility duration ([1]; 25 mg/kg i.p.): 175 ± 31 | immobility duration ([1]; 50 mg/kg i.p.): 161 ± 26 | immobility duration ([1]; 60 mg/kg i.p.): 176 ± 21 | immobility duration ([1]; 75 mg/kg i.p.): 170 ± 39 | immobility duration ([1]; 100 mg/kg i.p.): 187 ± 25 | inhibition in vivo at 20 mg/kg ([1]; Mus musculus, ip, 1 h, 20 mg/kg i.p., vs control (dosage 0), read-out: immobility duration < % (decrease)): 8% | inhibition in vivo at 25 mg/kg ([1]; Mus musculus, ip, 1 h, 25 mg/kg i.p., vs control (dosage 0), read-out: immobility duration < % (decrease)): 16% | inhibition in vivo at 50 mg/kg ([1]; Mus musculus, ip, 1 h, 50 mg/kg i.p., vs control (dosage 0), read-out: immobility duration < % (decrease)): 23% | inhibition in vivo at 60 mg/kg ([1]; Mus musculus, ip, 1 h, 60 mg/kg i.p., vs control (dosage 0), read-out: immobility duration < % (decrease)): 16% | inhibition in vivo at 75 mg/kg ([1]; Mus musculus, ip, 1 h, 75 mg/kg i.p., vs control (dosage 0), read-out: immobility duration < % (decrease)): 19% | inhibition in vivo at 100 mg/kg ([1]; Mus musculus, ip, 1 h, 100 mg/kg i.p., vs control (dosage 0), read-out: immobility duration < % (decrease)): 11% | LD50 ([2]; ip): > 1000 mg/kg

CC(C)Sc1nnc(N)s1 [B35]
immobility duration ([1]; 10 mg/kg i.p.): 165 ± 42 | immobility duration ([1]; 15 mg/kg i.p.): 194 ± 14 | immobility duration ([1]; 20 mg/kg i.p.): 185 ± 11 | inhibition in vivo at 10 mg/kg [1, 5]: 17% | minimal effective dose ([1]; Mus musculus, ip, 1 h): 10 mg/kg

CC(=O)Nc1nnc(SC(C)C)s1 [B36, 2-N-acethyl-5-isopropylmercapto-1,3,4thiadiazole]
immobility duration ([1]; 0.5 mg/kg i.p.): 178 ± 33 | immobility duration ([1]; 1 mg/kg i.p.): 159 ± 23 | immobility duration ([1]; 2.5 mg/kg i.p.): 188 ± 16 | immobility duration ([1]; 5 mg/kg i.p.): 196 ± 22 | immobility duration ([1]; 12.5 mg/kg i.p.): 199 ± 15 | inhibition in vivo at 1 mg/kg [1, 8]: 19% | minimal effective dose ([1]; Mus musculus, ip, 1 h): 1 mg/kg

CC(=O)N(C)c1nnc(SC(C)C)s1 [B39, 2-(N-methyl-N-acethyl)-amino-5-isopropylmercapto-1,3,4-thiadiazole]
immobility duration ([1]; 0.125 mg/kg i.p.): 180 ± 19 | immobility duration ([1]; 0.25 mg/kg i.p.): 155 ± 36 | immobility duration ([1]; 0.5 mg/kg i.p.): 169 ± 30 | immobility duration ([1]; 1 mg/kg i.p.): 161 ± 14 | immobility duration ([1]; 5 mg/kg i.p.): 176 ± 28 | immobility duration ([1]; 10 mg/kg i.p.): 204 ± 18 | inhibition in vivo at 0.25 mg/kg [1, 6]: 18% | inhibition in vivo at 0.5 mg/kg [1, 7]: 10% | inhibition in vivo at 1 mg/kg [1, 8]: 14%

CC(=O)Nc1nnc(SCc2ccc([N+](=O)[O-])cc2)s1 [B45]
immobility duration ([1]; 0.1 mg/kg i.p.): 182 ± 22 | immobility duration ([1]; 0.25 mg/kg i.p.): 167 ± 26 | immobility duration ([1]; 0.5 mg/kg i.p.): 166 ± 18 | immobility duration ([1]; 1 mg/kg i.p.): 183 ± 17 | inhibition in vivo at 0.25 mg/kg [1, 6]: 16% | inhibition in vivo at 0.5 mg/kg [1, 7]: 16%

COc1ccc(CSc2nnc(N)s2)cc1 [B51]
immobility duration ([1]; 0.01 mg/kg i.p.): 200 ± 19 | immobility duration ([1]; 0.03 mg/kg i.p.): 164 ± 29 | immobility duration ([1]; 0.1 mg/kg i.p.): 166 ± 13 | immobility duration ([1]; 0.3 mg/kg i.p.): 158 ± 24 | immobility duration ([1]; 1.25 mg/kg i.p.): 174 ± 40 | immobility duration ([1]; 5 mg/kg i.p.): 189 ± 15 | inhibition in vivo at 0.03 mg/kg ([1]; Mus musculus, ip, 1 h, 0.03 mg/kg i.p., vs control (dosage 0), read-out: immobility duration < % (decrease)): 13% | inhibition in vivo at 0.1 mg/kg [1, 9]: 12% | inhibition in vivo at 0.3 mg/kg ([1]; Mus musculus, ip, 1 h, 0.3 mg/kg i.p., vs control (dosage 0), read-out: immobility duration < % (decrease)): 16% | minimal effective dose ([1]; Mus musculus, ip, 1 h): ~0.5 mg/kg

COc1ccc(CSc2nnc(NC(C)=O)s2)cc1 [B53]
immobility duration ([1]; 0.1 mg/kg i.p.): 182 ± 16 | immobility duration ([1]; 0.5 mg/kg i.p.): 165 ± 25 | immobility duration ([1]; 1 mg/kg i.p.): 151 ± 29 | immobility duration ([1]; 2 mg/kg i.p.): 195 ± 31 | inhibition in vivo at 0.5 mg/kg [1, 7]: 10% | inhibition in vivo at 1 mg/kg [1, 8]: 15%

COc1cccc(CSc2nnc(N)s2)c1 [B63]
immobility duration ([1]; 0.05 mg/kg i.p.): 187 ± 34 | immobility duration ([1]; 0.1 mg/kg i.p.): 171 ± 26 | immobility duration ([1]; 0.25 mg/kg i.p.): 159 ± 22 | immobility duration ([1]; 0.5 mg/kg i.p.): 166 ± 25 | immobility duration ([1]; 1 mg/kg i.p.): 174 ± 30 | immobility duration ([1]; 10 mg/kg i.p.): 187 ± 26 | inhibition in vivo at 0.1 mg/kg [1, 9]: 15% | inhibition in vivo at 0.25 mg/kg [1, 6]: 21% | inhibition in vivo at 0.5 mg/kg [1, 7]: 18% | inhibition in vivo at 1 mg/kg [1, 8]: 14% | Social Interaction increase (%) ([4]; 0.25 mg/kg): 14% | Social Interaction increase (%) ([4]; 0.5 mg/kg): 40% | Social Interaction increase (%) ([4]; 1 mg/kg): 70% | Social Interaction increase (%) ([4]; 2.5 mg/kg): 73%

CN(C)CCCN1c2ccccc2CCc2ccccc21 [imipramine, reference compound]
minimal effective dose ([1]; Mus musculus, ip, 1 h): 20 mg/kg

Source: patent publication US5401853A, “Thiadiazole derivatives for the treatment of depressive states” (Laboratorio Farmaceutico C.T. S.r.l., priority 1992, dated 1995)
